Source: US20250136548A1, “FUNCTIONALIZED ALKYLAMINES” (Terran Biosciences Inc., priority 2022, published 2025)

How the values were obtained:
[1] = biological target: T1, 5-HT2B receptor (Homo sapiens, UniProt P41595); experiment: Calcium mobilization assay, agonist format, 5-HT2B receptor; format: cell-based; details: agonist mode, % activity relative to MAX control ligand (5-HT positive control), read-out: 5-HT2B agonist efficacy @ 1 μM
T1 construct: host or cells: unnamed cell lines
Protocol: (§1) • Protocol: in vitro testing at select 5-hydroxytryptamine (5-HT; serotonin) receptors was conducted.
(§2) Assay Design: Calcium Mobilization
(§3) • 1. Cell lines were expanded from freezer stocks according to standard procedures. • 2. Cells were seeded in a total volume of 20 μL into black-walled, clear-bottom, Poly-D-lysine coated 384-well microplates and incubated at 37° C. for the appropriate time prior to testing.
(§4) • 1. Assays were performed in 1×Dye Loading Buffer consisting of 1× Dye, 1× Additive A and 2.5 mM Probenecid in HBSS/20 mM Hepes. Probenicid was prepared fresh. • 2. Cells were loaded with dye prior to testing. Media was aspirated from cells and replaced with 20 μL Dye Loading Buffer. • 3. Cells were incubated for 30-60 minutes at 37° C.
(§5) • 1. For agonist determination, cells were incubated with sample to induce response. • 2. After dye loading, cells were removed from the incubator and 10 μL HBSS/20 mM Hepes was added. 3× vehicle was included in the buffer when performing agonist dose curves to define the EC80 for subsequent antagonist assays. Cells were incubated for 30 minutes at room temperature in the dark to equilibrate plate temperature. • 3. Intermediate dilution of sample stocks was performed to generate 4× sample in assay buffer. • 4. Compound agonist activity was measured on a FLIPR Tetra (MDS). Calcium mobilization was monitored for 2 minutes and 10 μL 4× sample in HBSS/20 mM Hepes was added to the cells 5 seconds into the assay.
(§6) • 1. Compound activity was analyzed using CBIS data analysis suite (ChemInnovation, CA). • 2. For agonist mode assays, percentage activity is calculated using the following formula:
(§7) % Activity=100%×(mean RFU of test sample−mean RFU of vehicle control)/(mean MAX RFU control ligand −mean RFU of vehicle control). • 3. For positive allosteric mode assays, percentage modulation was calculated using the following formula: […]

[2] = biological target: T2, 5-HT2A receptor (Homo sapiens, UniProt P28223); experiment: Calcium mobilization assay, agonist format, 5-HT2A receptor; format: cell-based; details: agonist mode, % activity relative to MAX control ligand (5-HT positive control), read-out: 5-HT2A agonist efficacy @ 1 μM
T2 construct: host or cells: unnamed cell lines
Protocol: as §1, §2, §3, §4, §5, §6, §7

T2 sequence (P28223 whole entry): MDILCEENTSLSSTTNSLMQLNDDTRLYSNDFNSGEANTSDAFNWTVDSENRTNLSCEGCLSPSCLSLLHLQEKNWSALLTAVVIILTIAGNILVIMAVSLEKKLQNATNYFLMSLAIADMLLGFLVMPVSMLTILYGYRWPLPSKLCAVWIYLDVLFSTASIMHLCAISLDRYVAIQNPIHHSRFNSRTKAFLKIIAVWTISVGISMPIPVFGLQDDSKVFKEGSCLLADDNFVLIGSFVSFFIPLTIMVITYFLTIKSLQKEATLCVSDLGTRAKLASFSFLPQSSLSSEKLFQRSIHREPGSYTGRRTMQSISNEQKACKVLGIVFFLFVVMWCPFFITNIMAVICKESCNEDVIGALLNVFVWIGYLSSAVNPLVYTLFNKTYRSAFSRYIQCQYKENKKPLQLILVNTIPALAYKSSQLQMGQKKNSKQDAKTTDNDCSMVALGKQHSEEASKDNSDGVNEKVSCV
T1 sequence (P41595 whole entry): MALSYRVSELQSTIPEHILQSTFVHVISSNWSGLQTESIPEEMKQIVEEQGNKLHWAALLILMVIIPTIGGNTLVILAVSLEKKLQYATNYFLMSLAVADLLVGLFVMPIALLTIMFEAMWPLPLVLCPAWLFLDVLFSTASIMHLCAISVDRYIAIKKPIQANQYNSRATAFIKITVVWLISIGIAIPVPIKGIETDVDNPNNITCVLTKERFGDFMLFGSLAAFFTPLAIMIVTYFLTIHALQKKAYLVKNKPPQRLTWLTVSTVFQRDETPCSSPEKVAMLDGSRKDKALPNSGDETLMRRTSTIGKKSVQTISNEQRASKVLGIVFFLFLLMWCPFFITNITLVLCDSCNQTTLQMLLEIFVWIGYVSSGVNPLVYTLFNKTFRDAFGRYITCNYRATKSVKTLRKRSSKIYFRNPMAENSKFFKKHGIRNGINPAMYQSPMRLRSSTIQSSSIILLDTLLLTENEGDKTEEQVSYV

Compound | activation at 1 µM [1] | activation at 1 µM [2]
CC1(O)CCN(CCn2ccc3cc(F)c(F)cc32)C1 (stereo not shown) [1-[2-(5,6-Difluoroindol-1-yl)ethyl]-3-methyl-pyrrolidin-3-ol] | -2.5% | -0.1%
OC1CCN(CCn2ccc3cc(F)c(F)cc32)C1 (stereo not shown) [1-[2-(5,6-Difluoroindol-1-yl)ethyl]pyrrolidin-3-ol] | -0.7% | 2%
CC1(O)CCN(CCc2c[nH]c3cc(F)c(F)cc23)C1 (stereo not shown) [1-[2-(5,6-difluoro-1H-indol-3-yl)ethyl]-3-methyl-pyrrolidin-3-ol] | -1% | 1.9%
CC1(O)CCN(CCn2ccc3cc(F)ccc32)C1 (stereo not shown) [1-[2-(5-Fluoroindol-1-yl)ethyl]-3-methyl-pyrrolidin-3-ol] | -1.1% | -0.3%
OC1CCN(CCn2ccc3cc(F)ccc32)C1 (stereo not shown) [1-[2-(5-Fluoroindol-1-yl)ethyl]pyrrolidin-3-ol] | -1.2% | -0.2%
CC1(O)CCN(CCc2c[nH]c3ccc(F)cc23)C1 (stereo not shown) [1-[2-(5-fluoro-1H-indol-3-yl)ethyl]-3-methyl-pyrrolidin-3-ol] | -1.5% | 7.5%
OC1CCN(CCc2c[nH]c3ccc(F)cc23)C1 (stereo not shown) [1-[2-(5-fluoro-1H-indol-3-yl)ethyl]pyrrolidin-3-olethanamine] | -0.7% | 46%
CC1(O)CCN(CCn2ccc3ccc(F)cc32)C1 (stereo not shown) [1-[2-(6-Fluoroindol-1-yl)ethyl]-3-methyl-pyrrolidin-3-ol] | -1.3% | 0%
OC1CCN(CCn2ccc3ccc(F)cc32)C1 (stereo not shown) [1-[2-(6-Fluoroindol-1-yl)ethyl]pyrrolidin-3-ol] | -2.8% | 2.5%
CC1(O)CCN(CCc2c[nH]c3cc(F)ccc23)C1 (stereo not shown) [1-[2-(6-fluoro-1H-indol-3-yl)ethyl]-3-methyl-pyrrolidin-3-ol] | -1.1% | -0.3%
CN(CCn1ccc2cc(F)c(F)cc21)CCS(C)(=O)=O [2-(5,6-Difluoroindol-1-yl)-N-methyl-N-(2-methylsulfonylethyl)ethanamine] | -1.3% | -0.5%
CN(CCn1ccc2cc(F)ccc21)CCS(C)(=O)=O [2-(5-Fluoroindol-1-yl)-N-methyl-N-(2-methylsulfonylethyl)ethanamine] | -2.7% | -0.8%
CN(CCc1c[nH]c2ccc(F)cc12)CCS(C)(=O)=O [2-(5-fluoro-1H-indol-3-yl)-N-methyl-N-(2-methylsulfonylethyl)ethanamine] | -0.5% | 27.3%
CN(CCn1ccc2ccc(F)cc21)CCS(C)(=O)=O [2-(6-Fluoroindol-1-yl)-N-methyl-N-(2-methylsulfonylethyl)ethanamine] | -1.3% | -1.2%
CN(CCO)CCn1ccc2cc(F)c(F)cc21 [2-[2-(5,6-Difluoroindol-1-yl)ethyl-methyl-amino]ethanol] | 0.1% | 6.2%
CN(CCO)CCc1c[nH]c2ccc(F)cc12 [2-[2-(5-Fluoro-1H-indol-3-yl)ethyl-methyl-amino]ethanol] | 1.2% | 47.1%
CN(CCO)CCn1ccc2cc(F)ccc21 [2-[2-(5-Fluoroindol-1-yl)ethyl-methyl-amino]ethanol] | -1.4% | -0.2%
CN(CCO)CCn1ccc2ccc(F)cc21 [2-[2-(6-Fluoroindol-1-yl)ethyl-methyl-amino]ethanol] | 0.2% | 8.3%
COc1ccc2c3c([nH]c2c1)CCNCC3 [8-methoxy-1,2,3,4,5,6-hexahydroazepino[4,5-b]indole, reference compound] | -0.8% | 71.7%
COc1ccc2c3c([nH]c2c1)CCN(C)CC3 [TBG, 8-methoxy-3-methyl-1,2,3,4,5,6-hexahydroazepino[4,5-b]indole, reference compound] | -2.2% | 18.2%
